Data from publication PMC10914731, “Homo-BacPROTAC-induced degradation of ClpC1 as a strategy against drug-resistant mycobacteria” (Nature Communications, 2024).
≈ marks a conversion by molar mass, not a printed value. Where “and” joins values, the source holds several entries; their conditions need not be identical. Identical values can stand only once. Like-named read-outs stand apart in the source and are kept apart here. *1 amine or outer side, *2 acyl side, *3 side chain or, on linkers, in order; H or OH if unused. Where a SMILES comes first, the peptide text is derived from it. [ ]: non-standard residue; d: D form. NMeTrp(1-Me) = CN[C@@H](Cc1cn(C)c2ccccc12)C(=O)O; X4 = C=CCO[C@H](c1ccccc1)[C@H](N[*:1])C(=O)[*:2]; NMeLeu(5-OH,4R) = CN[C@@H](C[C@@H](C)CO)C(=O)O; Phe(βR-OMe) = CO[C@H](c1ccccc1)[C@H](N)C(=O)O; Trp(1-Me) = Cn1cc(C[C@H](N)C(=O)O)c2ccccc21; NMeL = CN[C@@H](CC(C)C)C(=O)O; Pra = C#CC[C@H](N)C(=O)O

Assays:
[1] = molecular target: ClpC1 NTD protein (M. tuberculosis) (Mycobacterium tuberculosis, UniProt P9WPC9); assay: biochemical; format: binding
in vitro = settings: human; for efflux ratio: Caco-2
Outline: (§1)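 Values are bidirectional Caco-2 apparent permeabilities, P(A−B) and P(B−A), given in 10^-6 cm s-1. The efflux ratio divides P(B−A) by P(A−B), and intrinsic permeability averages the two directions.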

Caco-2 monolayers = assay: in vitro; settings: human, Caco-2
Outline: as §1

[2] = format: in vitro ADME, Mice; settings: for Microsomal Stability Mice: clearance in microsomes
Outline: (§2)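 Metabolic depletion in liver microsomes (0.5 mg/ml, 1 mM NADPH, 37 °C) starting from 1 µmol/l test compound, sampled at multiple times with acetonitrile quench. LC-MS/MS quantitation; half-life converted to %Qh.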

[3] = format: in vitro ADME, Rat; settings: for Microsomal Stability Rat: clearance in microsomes
Outline: as §2

[4] = Microsomal stability, human; format: in vitro ADME; settings: for Microsomal Stability Human: clearance in microsomes
Outline: as §2

[5] = Hepatocyte stability, mice; format: in vitro ADME; settings: mouse, pH 7.4
Outline: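 1 µM cpd (DMSO <0.05% final), cryopreserved hepatocytes ~1e6 cells/mL, 50% serum, pH 7.4, 37 °C/5–10% CO2; up to 6 h, 6 timepoints; ACN quench, HPLC-MS/MS; t1/2 → CL via well-stirred model, % Qh.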

[6] = format: in vitro ADME, Rat; settings: rat, pH 7.4
[7] = format: in vitro ADME, Human; settings: human, pH 7.4
[8] = tested on: M. tuberculosis H37Rv (ATCC 27294); assay: microbe, parasite or virus in culture; format: cell-based
Msm 607 = assay: microbe, parasite or virus in culture; format: cell-based
Msm 700084 = assay: microbe, parasite or virus in culture; format: cell-based
[9] = SPR dissociation rate constant, read-out: koff ClpC1-NTD Mean ± SD
[10] = SPR, individual measurements (source data), read-out: KD ClpC1-NTD
[11] = SPR, single independent measurements
[12] = SPR, single independent measurements, read-out: koff ClpC1-NTD
[13] = SPR, read-out: ClpC1-NTD KD Mean ± SD
[14] = Caco-2, Caco-2 permeability P (A-B)
[15] = Caco-2, Caco-2 permeability P (B-A)
[16] = Mycobacterium tuberculosis, M. tuberculosis H37Rv strain, read-out: MIC Mtb H37Rv Mean ± SD
[17] = Mycobacterium tuberculosis, Mtb H37Rv (Supplementary Table 2), read-out: MIC Mtb
[18] = Mycobacterium tuberculosis, individual measurements (source data), read-out: Mtb MIC
[19] = Mycobacterium tuberculosis, single determinations, read-out: Mtb MIC
[20] = Mycolicibacterium smegmatis, 607, read-out: MIC Msm 607
[21] = Mycolicibacterium smegmatis, 607, read-out: Msm 607 MIC, single determinations
[22] = Mycolicibacterium smegmatis, 700084, single determinations, read-out: Msm 700084 MIC
[23] = Mycolicibacterium smegmatis, 700084, read-out: MIC Msm 700084
[24] = SPR (Supplementary Table 1), read-out: KD ClpC1-NTD Mean ± SD
[25] = SPR, single independent measurements, read-out: KD ClpC1-NTD

Sequence of ClpC1 NTD protein (M. tuberculosis) (P9WPC9 1-156, looked up, natural form): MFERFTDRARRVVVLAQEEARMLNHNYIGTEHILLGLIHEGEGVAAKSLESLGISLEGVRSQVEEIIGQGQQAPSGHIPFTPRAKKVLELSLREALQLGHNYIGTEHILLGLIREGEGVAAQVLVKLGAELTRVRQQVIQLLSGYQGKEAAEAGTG

Structure (SMILES)	efflux ratio (in vitro)	Papp A→B (in vitro; Caco-2, CACO permeability PEAB)	Papp A→B (in vitro; [14])	Caco-2 Int. Perm (Caco-2 monolayers)	Microsomal Stability Mouse QH [2]	Microsomal Stability Mice [2]	Microsomal Stability Rat QH [3]	Microsomal Stability Rat [3]	Microsomal Stability Human QH [4]	Microsomal Stability Human [4]	Hepatocyte Mice [5]	Hepatocyte Stability Mouse QH [5]	Hepatocyte Rat [6]	Hepatocyte Human [7]	MIC [8, 17]	MIC [8, 19]	MIC (Msm 607; [20])	MIC (Msm 607; [21])	MIC (Msm 700084; [22])	MIC (Msm 700084; [23])	further results
CCCCCn1cc(C[C@@H]2NC(=O)[C@H](CC(C)C)N(C)C(=O)[C@H](C(C)C)NC(=O)[C@H]([C@H](OC)c3ccccc3)NC(=O)[C@H](C)NC(=O)[C@H](C[C@@H](C)CO)N(C)C(=O)[C@H](Cc3cn(C)c4ccccc34)N(C)C2=O)nn1 [Compound 25]	25.1	0.87 ×10⁻⁶ cm/s	0.9 ×10⁻⁶ cm/s	11.4	79.2% and 83.9%	82 %Qh	62% and 62.6%	62 %Qh	>88.4 >88.4%	> 88 %Qh	21 %Qh	27.872%	16 %Qh	30 %Qh	6.3 µM (≈ 6.55 µg/mL)	6.25 µM (≈ 6.5 µg/mL)	12.5 µM (≈ 13 µg/mL)	12.5 µM (≈ 13 µg/mL)	12.5 µM (≈ 13 µg/mL)	12.5 µM (≈ 13 µg/mL)	koff [1, 9]: 0.1 s⁻¹; Kd [1, 10]: 0.0262 µM and 0.026 µM; koff ClpC1-NTD [1, 11]: 1E-1 1E-1 1/s; koff [1, 12]: 0.1 s⁻¹; Kd [1, 13]: 0.0261 ± 0.0001 µM; Papp B→A (in vitro; [15]): 22 ×10⁻⁶ cm/s; Permeability Correlation P (A-B) (Caco-2 monolayers): > 3; Permeability Correlation Ratio (Caco-2 monolayers): > 1.5; MIC [8, 16]: 6.3 µM (≈ 6.55 µg/mL); MIC [8, 18]: 6.25 µM (≈ 6.5 µg/mL)
C=CCO[C@H](c1ccccc1)[C@@H]1NC(=O)[C@H](C)NC(=O)[C@H](C[C@@H](C)CO)N(C)C(=O)[C@H](Cc2cn(C)c3ccccc23)NC(=O)[C@H](C(C)C)NC(=O)[C@H](CC(C)C)N(C)C(=O)[C@H](C(C)C)NC1=O [Compound 14] (cyclo(A[X4]V[NMeL]V[Trp(1-Me)][NMeLeu(5-OH,4R)]))	12.1	–	–	21.7	>88.4 >88.4%	> 88 %Qh	84.3% and 84%	84 %Qh	>88.4 >88.4%	> 88 %Qh	29 %Qh	28.905%	57 %Qh	41 %Qh	3.1 µM (≈ 2.92 µg/mL)	3.12 µM (≈ 2.95 µg/mL)	1.6 µM (≈ 1.51 µg/mL)	1.56 µM (≈ 1.47 µg/mL)	12.5 µM (≈ 11.8 µg/mL)	12.5 µM (≈ 11.8 µg/mL)	Kd [1, 24]: 0.01 ± 0.001 µM; Kd [1, 25]: 0.00931 µM and 0.0107 µM; Papp B→A (in vitro; Caco-2, CACO permeability PEBA): 30 ×10⁻⁶ cm/s; Hepatocyte Stability Rat QH [6]: 56.626%; Hepatocyte Stability Human QH [7]: 41.006%
CO[C@H](c1ccccc1)[C@@H]1NC(=O)[C@H](C)NC(=O)[C@H](C[C@@H](C)CO)N(C)C(=O)[C@H](Cc2cn(C)c3ccccc23)NC(=O)[C@H](CCC(=O)N(C)C)NC(=O)[C@H](CC(C)C)N(C)C(=O)[C@H](C(C)C)NC1=O [SI-74] (cyclo(A[Phe(βR-OMe)]V[NMeL]E(NMe2)[Trp(1-Me)][NMeLeu(5-OH,4R)]))	> 6	< 0.46 ×10⁻⁶ cm/s	< 0.5 ×10⁻⁶ cm/s	1.7	83.700%	84 %Qh	60.700%	85 %Qh	85.000%	61 %Qh	38 %Qh	37.632%	49 %Qh	12 %Qh	3.1 µM (≈ 3.02 µg/mL)	3.12 µM (≈ 3.04 µg/mL)	0.8 µM (≈ 0.779 µg/mL)	0.78 µM (≈ 0.76 µg/mL)	6.25 µM (≈ 6.09 µg/mL)	9.4 ± 4.4 µM (≈ 9.16 µg/mL)	Kd [1, 24]: 0.004 ± 0.002 µM; Kd [1, 25]: 0.00328 µM and 0.00558 µM; Papp B→A (in vitro; Caco-2, CACO permeability PEBA): 3.4 ×10⁻⁶ cm/s; Hepatocyte Stability Rat QH [6]: 48.537%; Hepatocyte Stability Human QH [7]: 12.386%; MIC (Msm 700084; single determinations, read-out: Msm 700084 MIC): 12.500 µM (≈ 12.2 µg/mL)
C#CC[C@@H]1NC(=O)[C@H](CC(C)C)N(C)C(=O)[C@H](C(C)C)NC(=O)[C@H]([C@H](OC)c2ccccc2)NC(=O)[C@H](C)NC(=O)[C@H](C[C@@H](C)CO)N(C)C(=O)[C@H](Cc2cn(C)c3ccccc23)N(C)C1=O [Compound 20] (cyclo(A[Phe(βR-OMe)]V[NMeL][Pra][NMeTrp(1-Me)][NMeLeu(5-OH,4R)]))	11.8	2 ×10⁻⁶ cm/s	2.8 ×10⁻⁶ cm/s	15.7	>88.400%	> 88 %Qh	>87.900%	> 88 %Qh	>88.400%	> 88 %Qh	59 %Qh	58.928%	63 %Qh	34 %Qh	50 µM (≈ 46.4 µg/mL)	50 µM (≈ 46.4 µg/mL)	25 µM (≈ 23.2 µg/mL)	25 µM (≈ 23.2 µg/mL)	> 50 µM	> 50 µM	Kd [1, 10]: 0.0141 µM and 0.0137 µM; Kd [1, 13]: 0.0139 ± 0.0003 µM; Papp B→A (in vitro; Caco-2, CACO permeability PEBA): 36 ×10⁻⁶ cm/s; Papp B→A (in vitro; [15]): 28.5 ×10⁻⁶ cm/s; Influence of N-methylation on permeability (Caco-2 monolayers): >11.8; Permeability Correlation P (A-B) (Caco-2 monolayers): > 28; Hepatocyte Stability Rat QH [6]: 63.002%; Hepatocyte Stability Human QH [7]: 34.158%; MIC [8, 16]: 50 µM (≈ 46.4 µg/mL); MIC [8, 18]: 50 µM (≈ 46.4 µg/mL); MIC ([8]; individual measurements (source data), read-out: Mtb MIC): 50.000 µM (≈ 46.4 µg/mL)
CO[C@H](c1ccccc1)[C@@H]1NC(=O)[C@H](C)NC(=O)[C@H](C[C@@H](C)CO)N(C)C(=O)[C@H](Cc2cn(C)c3ccccc23)N(C)C(=O)[C@H](CCC(=O)N(C)C)NC(=O)[C@H](CC(C)C)N(C)C(=O)[C@H](C(C)C)NC1=O [SI-76] (cyclo(A[Phe(βR-OMe)]V[NMeL]E(NMe2)[NMeTrp(1-Me)][NMeLeu(5-OH,4R)]))	> 84	< 0.11 ×10⁻⁶ cm/s	< 0.1 ×10⁻⁶ cm/s	4.3	>88.400%	> 88 %Qh	78.000%	78 %Qh	>88.400%	> 88 %Qh	23 %Qh	23.483%	52 %Qh	–	6.3 µM (≈ 6.23 µg/mL)	6.25 µM (≈ 6.18 µg/mL)	12.5 µM (≈ 12.4 µg/mL)	12.5 µM (≈ 12.4 µg/mL)	25 µM (≈ 24.7 µg/mL)	25 µM (≈ 24.7 µg/mL)	Kd [1, 24]: 0.026 ± 0.006 µM; koff [1, 9]: 0.06 s⁻¹; koff ClpC1-NTD [1, 11]: 6E-2 6E-2 1/s; Kd [1, 25]: 0.0214 µM and 0.0305 µM; koff [1, 12]: 0.06 s⁻¹; Papp B→A (in vitro; Caco-2, CACO permeability PEBA): 10 ×10⁻⁶ cm/s; Hepatocyte Stability Rat QH [6]: 52.287%; Hepatocyte Stability Human QH [7]: 19.852%
